Results: patent US20110165076A1, “NOVEL [F-18]- LABELLED L-GLUTAMIC ACID AND L-GLUTAMINE DERIVATIVES (I), USE THEREOF AND METHOD FOR THEIR PRODUCTION” (BAYER SCHERING PHARMA AKTIENGESELLSCHAFT, priority 2008, published 2011)
One block for each compound: values may come before it.

How the values were obtained:
[1] = tested on: A549 cells; assay: Competition cell experiment: uptake of tracer 4R/S-[F-18]F-L-glutamic acid in presence of competitor; format: cell-based, human; conditions: competitor 1 mM; for % Tracer uptake: A549 cells, 10 min incubation with 0.250 MBq 4R/S-[F-18]F-L-Glu in PBS buffer; for inhibition of tracer uptake (competition): tracer 4R/S-[F-18]F-L-glutamic acid
Description: The uptake of the glutamic acid derivatives according to the invention into tumour cells was investigated in cell experiments. Here, the uptake of a radiolabelled glutamic acid derivative (4R/S—[F-18]F-L-glutamic acid) was examined in the presence of the compounds according to the invention and control susbtances (competition experiments). The compounds according to the invention were employed in excess (1 mM) over 4R/S—[F-18]F-L-glutamic acid (tracer).

[2] = tested on: A549 and H460 tumour cells; assay: Cell uptake of F-18-labelled glutamic acid derivative in tumour cells; conditions: for cellular uptake (FIG. 2): after 30 min
Description: Following labelling with F-18, (2S,4S)-2-amino-4-(3-[F-18]fluoropropyl)pentanedioic acid was examined in cell experiments with A549 and H460 tumour cells (both human non-small-cell bronchial carcinoma cell lines).

[3] = tested on: H460 tumour; assay: PET in rats bearing H460 tumours; format: in vivo; conditions: 80 min after i.v. 18 MBq, 20 min acquisition
[4] = tested on: A549 tumours; assay: Organ distribution experiment in mice bearing A549 tumours; format: in vivo; conditions: for % dose/g adrenals / % dose/g blood / % dose/g bone / % dose/g brain / % dose/g fat / % dose/g heart / % dose/g intestine / % dose/g kidney / % dose/g liver / % dose/g lung / % dose/g muscle / % dose/g ovary / % dose/g pancreas / % dose/g skin / % dose/g spleen / % dose/g stomach / % dose/g tail / % dose/g thyroid / % dose/g tumour / % dose/g uterus: i.v. 250 kBq
[5] = tested on: A549 tumour; assay: PET/CT imaging in mice bearing A549 tumours; format: in vivo; conditions: 60 min after i.v. 10 MBq, 20 min acquisition

SMILES: N[C@@H](C[C@@H](O)C(=O)O)C(=O)O [(4R)-hydroxy-L-Glu]
- % Tracer uptake [1]: 29.6%
- inhibition of tracer uptake (competition) [1]: 70%

SMILES: C[C@H](C[C@H](N)C(=O)O)C(=O)O [(4R)-methyl-L-Glu]
- % Tracer uptake [1]: 33.5%
- inhibition of tracer uptake (competition) [1]: 64%

SMILES: C[C@@H](C[C@H](N)C(=O)O)C(=O)O [(4S)-methyl-L-Glu]
- % Tracer uptake [1]: 7.7%
- inhibition of tracer uptake (competition) [1]: 92%

SMILES: NC(CC(F)C(=O)O)C(=O)O [(4R/S)-fluoro-D/L-Glu]
- % Tracer uptake [1]: 16.3%

SMILES: N[C@@H](C[C@H](CCCF)C(=O)O)C(=O)O [4S-(3-fluoropropyl)-L-Glu, (2S,4S)-2-Amino-4-(3-fluoropropyl)pentanedioic acid]
- % Tracer uptake [1]: 5.4%
- inhibition of tracer uptake (competition) [1]: > 94%

SMILES: N[C@@H](C[C@H](O)C(=O)O)C(=O)O [(4S)-hydroxy-L-Glu]
- % Tracer uptake [1]: 13.2%
- inhibition of tracer uptake (competition) [1]: 87%

SMILES: OC[C@H]1OC(O)[C@H]([18F])[C@@H](O)[C@@H]1O (stereo partly shown) [[F-18]FDG, [^18F]-2-Fluorodeoxyglucose, reference compound]
- cellular uptake (FIG. 2) [2]: 770 000 cpm/100 000 cells

- % dose/g adrenals ([4]; 0.25 h): 0.94 % dose/g
- % dose/g adrenals ([4]; 0.5 h): 0.78 % dose/g
- % dose/g adrenals ([4]; 1.0 h): 0.27 % dose/g
- % dose/g adrenals ([4]; 2.00 h): 0.20 % dose/g
- % dose/g blood ([4]; 0.25 h): 0.72 % dose/g
- % dose/g blood ([4]; 0.5 h): 0.35 % dose/g
- % dose/g blood ([4]; 1.0 h): 0.13 % dose/g
- % dose/g blood ([4]; 2.00 h): 0.07 % dose/g
- % dose/g bone ([4]; 0.25 h): 0.44 % dose/g
- % dose/g bone ([4]; 0.5 h): 0.37 % dose/g
- % dose/g bone ([4]; 1.0 h): 0.20 % dose/g
- % dose/g bone ([4]; 2.00 h): 0.20 % dose/g
- uptake into the bones ([4]; bones, at all points in time): < 0.5 % ID/g
- % dose/g brain ([4]; 0.25 h): 0.09 % dose/g
- % dose/g brain ([4]; 0.5 h): 0.10 % dose/g
- % dose/g brain ([4]; 1.0 h): 0.06 % dose/g
- % dose/g brain ([4]; 2.00 h): 0.05 % dose/g
- % dose/g fat ([4]; 0.25 h): 0.31 % dose/g
- % dose/g fat ([4]; 0.5 h): 0.08 % dose/g
- % dose/g fat ([4]; 1.0 h): 0.04 % dose/g
- % dose/g fat ([4]; 2.00 h): 0.09 % dose/g
- % dose/g heart ([4]; 0.25 h): 0.42 % dose/g
- % dose/g heart ([4]; 0.5 h): 0.20 % dose/g
- % dose/g heart ([4]; 1.0 h): 0.08 % dose/g
- % dose/g heart ([4]; 2.00 h): 0.05 % dose/g
- % dose/g intestine ([4]; 0.25 h): 1.27 % dose/g
- % dose/g intestine ([4]; 0.5 h): 0.90 % dose/g
- % dose/g intestine ([4]; 1.0 h): 0.52 % dose/g
- % dose/g intestine ([4]; 2.00 h): 0.32 % dose/g
- % dose/g kidney ([4]; 0.25 h): 14.38 % dose/g
- % dose/g kidney ([4]; 0.5 h): 6.44 % dose/g
- % dose/g kidney ([4]; 1.0 h): 2.01 % dose/g
- % dose/g kidney ([4]; 2.00 h): 0.80 % dose/g
- uptake in kidneys ([4]; kidneys, after 0.25 h): 14.4 % ID/g
- activity in kidneys ([4]; kidneys, after 1 h): 2 % ID/g
- % dose/g liver ([4]; 0.25 h): 0.55 % dose/g
- % dose/g liver ([4]; 0.5 h): 0.46 % dose/g
- % dose/g liver ([4]; 1.0 h): 0.21 % dose/g
- % dose/g liver ([4]; 2.00 h): 0.11 % dose/g
- % dose/g lung ([4]; 0.25 h): 1.35 % dose/g
- % dose/g lung ([4]; 0.5 h): 1.08 % dose/g
- % dose/g lung ([4]; 1.0 h): 0.50 % dose/g
- % dose/g lung ([4]; 2.00 h): 0.29 % dose/g
- % dose/g muscle ([4]; 0.25 h): 0.17 % dose/g
- % dose/g muscle ([4]; 0.5 h): 0.09 % dose/g
- % dose/g muscle ([4]; 1.0 h): 0.05 % dose/g
- % dose/g muscle ([4]; 2.00 h): 0.03 % dose/g
- % dose/g ovary ([4]; 0.25 h): 1.82 % dose/g
- % dose/g ovary ([4]; 0.5 h): 1.13 % dose/g
- % dose/g ovary ([4]; 1.0 h): 0.94 % dose/g
- % dose/g ovary ([4]; 2.00 h): 0.28 % dose/g
- % dose/g pancreas ([4]; pancreas, 0.25 h): 13.64 % dose/g
- % dose/g pancreas ([4]; pancreas, 0.5 h): 8.51 % dose/g
- % dose/g pancreas ([4]; pancreas, 1.0 h): 3.99 % dose/g
- % dose/g pancreas ([4]; pancreas, 2.00 h): 1.35 % dose/g
- uptake in pancreas ([4]; pancreas, after 0.25 h): 13.6 % ID/g
- activity in pancreas ([4]; pancreas, after 1 h): 4 % ID/g
- % dose/g skin ([4]; 0.25 h): 1.71 % dose/g
- % dose/g skin ([4]; 0.5 h): 2.26 % dose/g
- % dose/g skin ([4]; 1.0 h): 1.80 % dose/g
- % dose/g skin ([4]; 2.00 h): 1.01 % dose/g
- % dose/g spleen ([4]; 0.25 h): 2.87 % dose/g
- % dose/g spleen ([4]; 0.5 h): 1.76 % dose/g
- % dose/g spleen ([4]; 1.0 h): 1.02 % dose/g
- % dose/g spleen ([4]; 2.00 h): 0.53 % dose/g
- % dose/g stomach ([4]; 0.25 h): 3.25 % dose/g
- % dose/g stomach ([4]; 0.5 h): 2.64 % dose/g
- % dose/g stomach ([4]; 1.0 h): 0.96 % dose/g
- % dose/g stomach ([4]; 2.00 h): 0.39 % dose/g
- % dose/g tail ([4]; 0.25 h): 2.74 % dose/g
- % dose/g tail ([4]; 0.5 h): 3.45 % dose/g
- % dose/g tail ([4]; 1.0 h): 1.19 % dose/g
- % dose/g tail ([4]; 2.00 h): 1.69 % dose/g
- % dose/g thyroid ([4]; 0.25 h): 1.17 % dose/g
- % dose/g thyroid ([4]; 0.5 h): 1.31 % dose/g
- % dose/g thyroid ([4]; 1.0 h): 0.77 % dose/g
- % dose/g thyroid ([4]; 2.00 h): 0.42 % dose/g
- % dose/g tumour ([4]; tumour, 0.25 h): 2.42 % dose/g
- injected dose per g in the tumour ([4]; tumour, 0.25 h after injection): 2.4 % ID/g
- % dose/g tumour ([4]; tumour, 0.5 h): 1.82 % dose/g
- % dose/g tumour ([4]; tumour, 1.0 h): 1.58 % dose/g
- % dose/g tumour ([4]; tumour, 2.00 h): 0.97 % dose/g
- tumour uptake ([4]; tumour, after 1 h): 1.6 % ID/g
- % dose/g uterus ([4]; 0.25 h): 1.30 % dose/g
- % dose/g uterus ([4]; 0.5 h): 1.27 % dose/g
- % dose/g uterus ([4]; 1.0 h): 0.93 % dose/g
- % dose/g uterus ([4]; 2.00 h): 0.37 % dose/g
SMILES: N[C@@H](C[C@H](CCC[18F])C(=O)O)C(=O)O
- cellular uptake (FIG. 2) [2]: 840 000 cpm/100 000 cells
- cellular uptake ([2]; after 30 min of incubation, A549 and H460 tumour cells): 899 000 cpm per 100 000 cells
- accumulation in tumour cells compared to [F-18]FDG ([2]; after 30 minutes of incubation): accumulates to a greater degree
- uptake into the H460 tumour (PET image analysis) [3]: high uptake
- uptake into the A549 tumour (PET/CT image analysis) [5]: high uptake

SMILES: N[C@@H](CCC(=O)O)C(=O)O [L-Glu, L-configured glutamic acid]
- % Tracer uptake [1]: 12.6%
- inhibition of tracer uptake (competition) [1]: 87%
